From a melting point compilation (Tetko et al.; mined from patent text by program, amines drawn as free bases though some values may be those of a salt)

Point of comparison: `COC(=O)c1ccc2c(c1SCCCl)Cc1ccccc1CO2`, melting point 100 °C. Against it:
- CC1(C(=O)Nc2ccc(-n3nc(C(F)(F)F)cc3C(F)(F)F)cc2)C=CCCC1 (stereo not drawn) — higher, 108 to 110 °C
- CCc1c(C(=O)c2cc(C)cc(C)c2)n(CC2=CC(CO)C(CO)C2)c(=O)[nH]c1=O (stereo not drawn) — lower, 79 to 80 °C
- CON=Cc1sc(-c2ccc(O)cc2)c(C)c1-c1ccc(O)cc1 — higher, 219 to 225 °C
- COC(=O)c1ccc(Cc2cc3cc(Cl)ccc3n2S(=O)(=O)c2ccc(C(C)C)cc2)cc1 — lower, 99 °C
- CC(C)n1nc(OCc2ccccc2)cc1CO — lower, 81 to 82 °C
- CC(C(=O)NC(=O)OC1CCCCC1)(c1ccccc1)c1ccccc1 — higher, 126 °C
- CC(Oc1ccc(NC(=O)NC(=O)c2ccccc2Cl)cc1)c1ccccc1 (stereo not drawn) — higher, 166 to 167 °C
- CC1Cc2c(n(-c3ccccc3)c3ncccc3c2=O)O1 (stereo not drawn) — higher, 207 to 209 °C
- CCCCC1OC(=O)c2cc(NC3CCCC3)ccc21 (stereo not drawn) — lower, 79 to 81 °C
- O=CC(=O)c1ccc(OCCc2ccccc2)cc1 — lower, 44 to 59 °C
- O=C1C(Br)=C(c2ccccc2)C(=O)N1Nc1ccccc1 — higher, 146 to 147 °C
- COc1cccc2sc(NC(=O)COC(C)=O)nc12 — higher, 161 to 162 °C
- Cc1ccc2c([N+](=O)[O-])c(F)ccc2n1 — higher, 105 to 108 °C
- CCCc1sc(-c2ccccc2)nc1OC(=O)NC — lower, 55 to 58 °C
- C=CCOC(=O)C1=C(C)NC(C)=C(C(=O)OCC)C1c1ccc(OC)c(OC)c1OC (stereo not drawn) — higher, 134 to 135 °C
- COCCCS(=O)(=O)NC(=O)CCc1ccc(OCCOC)cc1Oc1ncc(C(F)(F)F)cc1Cl — higher, 112 to 113 °C
- O=C1c2ccccc2S(=O)(=O)N1/C=C/CSc1nnnn1-c1ccccc1 — higher, 191 to 193 °C
- CCCc1nc(SC)c(C(O)(C(=O)O)c2ccccc2)n1Cc1ccc(-c2ccccc2S(=O)(=O)NC(=O)NCc2ccccc2)cc1 (stereo not drawn) — higher, 170 °C
- Cc1ccc(-c2c(C(=O)Nc3nccs3)nc(-c3cccc4ccccc34)n2Cc2ccccc2)cc1 — higher, 231 to 232 °C
- NC(=O)c1[nH]c2ccc(C(O)(C(F)(F)F)C(F)(F)F)cc2c1-c1ccccc1 — higher, 220 to 224 °C
- COc1ccc2cc(C=O)ccc2c1Br — higher, 133 to 135 °C
- Cc1ccc(N(c2ccccc2)c2ccc(-c3ccc(N(c4ccccc4)c4ccc(C)cc4)cc3)cc2)cc1 — higher, 163 to 164 °C
- CC(=S)OCc1ccc([N+](=O)[O-])cc1 — lower, 55.5 to 57.5 °C
- O=C(Nc1ccccc1C(F)(F)F)c1ccc([N+](=O)[O-])cc1 — higher, 126 °C
- Cc1ccc(N2CC(COc3ccc(C(=O)O)cc3)CC2=O)cc1 (stereo not drawn) — higher, 212 to 213 °C
- CON=Cc1nn(-c2c(Cl)cc(C(F)(F)F)cc2Cl)c(N)c1SC(F)(F)F — higher, 129 to 132 °C
- O=C(NO)c1ccc(CNC(=O)c2[nH]c(-c3ccccc3)cc2-c2ccc(C(F)(F)F)cc2)cc1 — higher, 137 to 138 °C
- O=C(Cc1ccnc(Cl)n1)c1ccc(F)cc1 — higher, 112 to 113 °C
- CN(C)c1ccccc1CSc1nccc(=O)[nH]1 — higher, 156 to 158 °C
- COc1ccc(CCNCC(O)CO)cc1OC (stereo not drawn) — lower, 80 to 82 °C
- CCOC(=O)NNC(=O)CC(F)=C(F)F — higher, 110 °C
- Cc1c(C(=O)O)ccc2c1OCO2 — higher, 180 to 182 °C
- N=C(Nc1ccccc1-c1ccccc1)C1CCCCC1 — higher, 148 to 150 °C
- O=C(O)CCCCCCCCn1c(-c2ccccc2)c(-c2ccccc2)n(-c2ccccc2)c1=O — higher, 123 to 124 °C
- CCOC(=O)c1nc(C(=O)Oc2ccccc2)sc1N — higher, 168 °C
- CCOc1ccc(C(=O)Nc2c(Cl)cncc2Cl)c2c3ccccc3n(Cc3ccccc3)c12 — higher, 210 to 213 °C
- CC(C)(C)CN1C(=O)[C@@H](CC(=O)Nc2cccc(-c3nnn[nH]3)c2)O[C@H](c2ccccc2Cl)c2cc(Cl)ccc21 (relative stereo) — higher, 218 to 220 °C
- Cc1c(Br)cc(C(C)(C)C)c(O)c1-c1nc2cc(OC(F)(F)F)ccc2[nH]1 — higher, 235 to 236 °C
- COc1cc(C(=O)O)ccc1Cn1cnc2ccc(NC(=O)OC3CCCC3)cc21 — higher, 241 to 242 °C
- CC[C@H](Cn1cnnc1)n1cnc2cc3c(=O)n([C@H](CC)Cn4ncnn4)cnc3cc2c1=O — higher, 130 to 132 °C
- COC(=O)c1ccc(Cc2cn(C)c3ccc(NC(=O)CC4CCCC4)cc23)c(OC)c1 — higher, 180 to 181 °C
- Cc1ccc2ccccc2c1Nc1ccccc1C(=O)O — higher, 215 to 216 °C
- O=C(Cn1c2c(c3ccccc31)CCNCC2)Nc1cccnc1 — higher, 138 to 140 °C
- CS(=O)(=O)c1ccc(-n2nc(CCCO)cc2-c2ccccc2)cc1 — higher, 120 to 123 °C
- CCOc1c(OC)cc(COc2ccc(N)nn2)cc1OC — higher, 169 to 171 °C
- O=C(O)c1c2c(nc3ccc(F)cc13)-c1ccc(-c3cccs3)cc1CCC2 — higher, > 300 °C
- COc1ccc(/C=C/C(=O)C2C(=O)CC(c3ccc(OC)cc3)C([N+](=O)[O-])C2c2ccco2)cc1 (stereo not drawn) — higher, 192 °C
- Nc1ncn(C[C@H](O)COC(c2ccccc2)(c2ccccc2)c2ccccc2)c(=O)n1 — higher, 130 to 132 °C
- COc1ccc(-c2cc(COS(C)(=O)=O)c(=O)n(CC3CCCC3)n2)cc1F — higher, 108 to 116 °C
- CC1NC(=O)Nc2ccc(C(=O)CBr)cc21 (stereo not drawn) — higher, 188 to 190 °C
- CC(C)c1c(C=O)c(-c2ccc(F)cc2)c2ccccn12 — lower, 94 to 95 °C
- CCOC(=O)CN1C(=O)C(C(C)C)N(C(C)=O)C=C1c1ccccc1 (racemic) — lower, 96 to 98 °C
- CC1(c2ccc3cc(C(O)c4cccnc4)ccc3c2)OCCO1 (stereo not drawn) — higher, 154 to 156 °C
- COC(=O)C(NC(=O)c1ccccc1)c1ccc(-c2ccc(S(=O)(=O)O)cc2)cc1 (stereo not drawn) — higher, > 250 °C
- O=C(NC(Cc1ccc([N+](=O)[O-])cc1)C(=O)C(F)(F)F)c1ccccc1 (stereo not drawn) — higher, 175 °C
- O=Cc1c[nH]c2c1ccc1c3cc(-c4ccc(F)cc4)ccc3[nH]c12 — higher, > 250 °C
- CCCc1nc2c(N)nc3cc(Br)ccc3c2n1CC1CCN(C(=O)OC(C)(C)C)CC1 — higher, 134 to 137 °C
- O=C(CCC(=O)N1CCC(c2ccc(Cl)cc2)CC1)c1ccc2c(c1)CCN(C(=O)C(F)(F)F)CC2 — higher, 131 to 132 °C
- COc1ccc(-c2cc(=S)n(Cc3ccncc3)nc2-c2ccc(OC)cc2)cc1 — higher, 160 °C
- CC(=O)OCCOc1ccc2oc3cc(-c4nnn[nH]4)ccc3c(=O)c2c1 — higher, 216 to 218 °C
- Cc1cc(Cl)ccc1Cn1nc(OC(C)C)cc1CCCOc1nn(Cc2ccccc2)cc1CC(=O)O — lower, 81 to 82 °C
- COc1cc2c(Nc3ccc(Cl)cc3F)ncnc2cc1OCCCC(=O)N1CCOCC1 — higher, 216 to 217 °C
- COC(=O)C[C@H](O)CC(=O)C=Cc1c(-c2ccc(F)cc2)c(-c2ccc(F)cc2)c(C(=O)Nc2ccc(S(N)(=O)=O)cc2)n1C(C)C — higher, 109 to 110 °C
- CCCCCc1ccc(S(=O)(=O)n2c(CCC(=O)O)cc3cc(Cl)ccc32)cc1 — higher, 131 to 134 °C
- CCn1ncc2c(-c3cncc(C)c3)c(C(=O)NCc3ccc(OC)cc3)c(-c3ccccc3)nc21 — higher, 203 to 204 °C
- O=C(N[C@H]1CCCNC1=O)c1cc(F)cc(F)c1 — higher, 198 to 199 °C
- COc1ccc(COc2ccc(-c3ccc(C#N)c(=O)[nH]3)cc2OC)cc1OC — higher, 220 to 221 °C
